Molecules are shown by their SMILES. pIC50: −log10 of the molar value.

In test [1] the target is Reverse transcriptase (Human immunodeficiency virus 2). The test can be described thus: Inhibitory activity against HIV-2 reverse transcriptase.
Test [2] can be described thus: Inhibitory activity against HIV-1 RT with poly.rC-oligo.dG template primer.

The pIC50 is the IC50 on a negative log10 scale, so that one unit is a factor of ten. The low end stands for a large IC50, the high end for a small IC50. As to `O=S(=O)(c1ccccc1)c1c(C2=NCCS2)[nH]c2ccc(Cl)cc12` [3-Benzenesulfonyl-5-chloro-2-(4,5-dihydro-thiazol-2-yl)-1H-indole], the pIC50 in test [1] was < 3.52; in test [2], 7.77.
Take `Cc1nc(-c2[nH]c3ccc(Cl)cc3c2S(=O)(=O)c2ccccc2)[nH]c1C` [3-Benzenesulfonyl-5-chloro-2-(4,5-dimethyl-1H-imidazol-2-yl)-1H-indole]: the pIC50 in test [1] was < 3.52; in test [2] it was 8.29.
In test [2], `CC1(C)CN=C(c2[nH]c3ccc(Cl)cc3c2S(=O)(=O)c2ccccc2)N1` [3-Benzenesulfonyl-5-chloro-2-(5,5-dimethyl-4,5-dihydro-1H-imidazol-2-yl)-1H-indole] gave a negative logarithm of the IC50 (pIC50) of 7.30.
Same read-out and setting: to `O=S(=O)(c1ccccc1)c1c(-n2ccnc2)[nH]c2ccc(Cl)cc12` [3-Benzenesulfonyl-5-chloro-2-imidazol-1-yl-1H-indole] belongs 5.62.
Turning to `O=S(=O)(c1ccccc1)c1c(C2=NCCCN2)[nH]c2ccc(Cl)cc12` [3-Benzenesulfonyl-5-chloro-2-(1,4,5,6-tetrahydro-pyrimidin-2-yl)-1H-indole], the pIC50 in test [2] was 5.64.
Same read-out and setting: under `O=S(=O)(c1ccccc1)c1c(-c2nc3c([nH]2)CCCC3)[nH]c2ccc(Cl)cc12` [2-(3-Benzenesulfonyl-5-chloro-1H-indol-2-yl)-4,5,6,7-tetrahydro-1H-benzoimidazole] stands 8.09.
Same read-out and setting: under `CCc1nc(-c2[nH]c3ccc(Cl)cc3c2S(=O)(=O)c2ccccc2)[nH]c1CC` [3-Benzenesulfonyl-5-chloro-2-(4,5-diethyl-1H-imidazol-2-yl)-1H-indole] stands 8.00; under `O=S(=O)(c1ccccc1)c1c(C2=N[C@H]3CCCC[C@@H]3N2)[nH]c2ccc(Cl)cc12` [(3aS,7aS)-2-(3-Benzenesulfonyl-5-chloro-1H-indol-2-yl)-3a,4,5,6,7,7a-hexahydro-1H-benzoimidazole], 7.54.

For the origin of these results see BindingDB's records for doi:10.1016/0960-894X(95)00059-3 (1995).
